Measurements as given in US20180037568A1, “MODULATORS OF METHYL MODIFYING ENZYMES, COMPOSITIONS AND USES THEREOF” (Constellation Pharmaceuticals, Inc., priority 2015, published 2018).

Molecular target: EZH2 (Homo sapiens, UniProt Q15910)
Assay: EZH2 nuc BSA Brij 1.5 (IC50): rPRC2, biotinylated oligonucleosome substrate, 3H SAM FlashPlate
Format: biochemical
Conditions: read-out: EZH2 nuc BSA Brij 1.5 (IC50); 2 nM EZH2, 0.2 μM biotinylated oligonucleosomes, 0.2 μM 3H SAM, 3.6 μM H3K27me3 peptide
Procedure, shortened: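 rPRC2 (2 nM EZH2) with 0.2 μM biotinylated oligonucleosomes, 0.2 μM 3H-SAM and 3.6 μM H3K27me3 peptide in pH 8.5 Tris with Brij-35 and BSA. Compounds, 80–0.16 μM in ten 2-fold steps, pre-incubated 20 min before a 60 min reaction. SAH/EDTA quench, streptavidin FlashPlate capture, scintillation count; IC50 from a 4-parameter fit.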

Chain of EZH2 (Q15910 whole entry): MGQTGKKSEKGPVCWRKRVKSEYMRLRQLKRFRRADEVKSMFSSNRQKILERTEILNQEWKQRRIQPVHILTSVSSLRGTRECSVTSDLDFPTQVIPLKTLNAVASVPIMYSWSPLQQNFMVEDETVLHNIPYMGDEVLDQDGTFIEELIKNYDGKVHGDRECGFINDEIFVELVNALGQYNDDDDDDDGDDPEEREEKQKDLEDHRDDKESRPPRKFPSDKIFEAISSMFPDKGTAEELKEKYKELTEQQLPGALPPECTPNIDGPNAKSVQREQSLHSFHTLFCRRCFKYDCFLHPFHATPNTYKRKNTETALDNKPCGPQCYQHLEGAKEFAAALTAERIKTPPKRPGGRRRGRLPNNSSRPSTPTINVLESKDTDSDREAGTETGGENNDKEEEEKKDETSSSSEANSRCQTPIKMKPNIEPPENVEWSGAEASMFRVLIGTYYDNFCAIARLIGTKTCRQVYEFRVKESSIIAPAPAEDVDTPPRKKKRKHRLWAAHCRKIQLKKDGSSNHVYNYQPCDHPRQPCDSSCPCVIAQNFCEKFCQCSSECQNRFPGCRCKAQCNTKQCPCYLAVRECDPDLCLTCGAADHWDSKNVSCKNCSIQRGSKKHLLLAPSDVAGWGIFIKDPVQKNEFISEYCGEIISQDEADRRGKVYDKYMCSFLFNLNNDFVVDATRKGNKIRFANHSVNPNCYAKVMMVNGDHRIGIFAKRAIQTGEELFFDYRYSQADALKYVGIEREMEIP
Chain of EZH2 (O75530 whole entry partner): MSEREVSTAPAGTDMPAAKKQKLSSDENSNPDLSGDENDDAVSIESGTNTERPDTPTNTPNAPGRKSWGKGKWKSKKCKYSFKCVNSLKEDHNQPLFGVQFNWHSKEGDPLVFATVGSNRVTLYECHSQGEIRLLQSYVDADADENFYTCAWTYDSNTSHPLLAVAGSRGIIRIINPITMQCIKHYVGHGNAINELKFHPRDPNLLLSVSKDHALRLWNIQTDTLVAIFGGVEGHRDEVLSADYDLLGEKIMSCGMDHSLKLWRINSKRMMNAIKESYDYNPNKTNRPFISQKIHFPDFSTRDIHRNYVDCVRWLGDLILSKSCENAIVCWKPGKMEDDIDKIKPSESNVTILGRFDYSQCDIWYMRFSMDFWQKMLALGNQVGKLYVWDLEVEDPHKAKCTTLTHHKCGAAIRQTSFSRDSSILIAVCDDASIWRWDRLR
Chain of EZH2 (Q15022 whole entry partner): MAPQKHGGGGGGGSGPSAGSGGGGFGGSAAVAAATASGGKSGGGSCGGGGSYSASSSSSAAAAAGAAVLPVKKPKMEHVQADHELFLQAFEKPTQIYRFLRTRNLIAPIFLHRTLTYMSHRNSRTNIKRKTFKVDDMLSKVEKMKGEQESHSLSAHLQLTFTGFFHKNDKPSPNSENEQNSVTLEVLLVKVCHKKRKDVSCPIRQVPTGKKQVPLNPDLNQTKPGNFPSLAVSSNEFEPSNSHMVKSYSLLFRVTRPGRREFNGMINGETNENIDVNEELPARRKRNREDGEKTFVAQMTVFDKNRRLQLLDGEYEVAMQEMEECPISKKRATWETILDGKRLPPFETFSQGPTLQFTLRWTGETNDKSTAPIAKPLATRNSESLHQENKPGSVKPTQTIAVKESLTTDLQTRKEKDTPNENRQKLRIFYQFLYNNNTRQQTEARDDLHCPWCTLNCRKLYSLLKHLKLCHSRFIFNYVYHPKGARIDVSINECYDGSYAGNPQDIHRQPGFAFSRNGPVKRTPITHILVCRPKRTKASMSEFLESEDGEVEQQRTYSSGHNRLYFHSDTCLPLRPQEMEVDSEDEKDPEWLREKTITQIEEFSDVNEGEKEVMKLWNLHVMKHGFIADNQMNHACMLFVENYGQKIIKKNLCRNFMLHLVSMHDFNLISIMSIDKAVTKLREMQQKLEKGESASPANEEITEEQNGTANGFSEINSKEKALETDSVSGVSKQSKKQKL

## COc1cc(C)[nH]c(=O)c1CNC(=O)c1c(C)n(C(C)C2CCN(C)C(C(F)(F)F)C2)c2ccccc12 (single isomer, unassigned) [Compound 21, N-((4-methoxy-6-methyl-2-oxo-1,2-dihydropyridin-3-yl)methyl)-2-methyl-1-(1-(1-methyl-2-(trifluoromethyl)piperidin-4-yl)ethyl)-1H-indole-3-carboxamide]
  IC50: < 100 nM
